27 molecules from patent US11319315B2, “Cyclohexyl acid triazole azoles as LPA antagonists” (BRISTOL-MYERS SQUIBB COMPANY, priority 2017, dated 2022) can be followed below.

The target of the assay is T1, human LPA1 (Homo sapiens, UniProt Q92633).
T1 construct: expressed in transfected cells; host or cells: Chinese hamster ovary (CHO) cells
Kind of assay: LPA1 functional antagonist assay (LPA-induced calcium flux in CHO cells overexpressing human LPA1). The note with it: inhibition of calcium flux induced by 10 nM LPA, CHO cells overexpressing human LPA1; read-out: hLPA1 IC50. It counts as cell-based. In outline: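 Calcium flux was triggered by 10 nM LPA after 20 min room-temperature compound pre-incubation (final 0.08 nM to 5 μM, 0.5% DMSO) in human LPA1-overexpressing CHO cells carrying calcium dye. Buffer: HBSS with Ca/Mg, 20 mM HEPES, 0.1% fatty-acid-free BSA; IC50s from 4-parameter logistic fits.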
A general note: A change in cytosolic calcium serves as a functional read-out for many receptors and channels.

T1 sequence (Q92633 whole entry): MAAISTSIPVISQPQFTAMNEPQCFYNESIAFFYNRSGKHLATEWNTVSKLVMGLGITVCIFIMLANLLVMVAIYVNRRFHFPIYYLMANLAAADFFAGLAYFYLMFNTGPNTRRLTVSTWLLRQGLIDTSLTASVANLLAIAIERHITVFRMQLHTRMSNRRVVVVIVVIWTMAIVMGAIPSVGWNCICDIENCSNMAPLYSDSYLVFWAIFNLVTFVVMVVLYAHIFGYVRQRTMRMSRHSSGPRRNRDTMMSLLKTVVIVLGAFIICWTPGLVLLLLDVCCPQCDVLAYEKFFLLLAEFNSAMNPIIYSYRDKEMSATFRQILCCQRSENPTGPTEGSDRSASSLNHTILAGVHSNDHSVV

As to `Cc1nc(-c2nnn(C)c2Cc2noc(CC3CC3)n2)ccc1O[C@H]1CCC[C@H](C(=O)O)C1` [Example 228, (1S,3S)-3-((6-(5-((5-(cyclopropylmethyl)-1,2,4-oxadiazol-3-yl)methyl)-1-methyl-1H-1,2,3-triazol-4-yl)-2-methylpyridin-3-yl)oxy)cyclohexane-1-carboxylic acid], the IC50 (commonly the midpoint of a concentration-inhibition curve) was 19 nM. Regarding `Cc1nc(-c2nnn(C)c2Cc2noc(CCC(C)C)n2)ccc1O[C@H]1CCC[C@H](C(=O)O)C1` [Example 229, (1S,3S)-3-((6-(5-((5-isopentyl-1,2,4-oxadiazol-3-yl)methyl)-1-methyl-1H-1,2,3-triazol-4-yl)-2-methylpyridin-3-yl)oxy)cyclohexane-1-carboxylic acid], the IC50 was determined as 11 nM. Turning to `Cc1nc(-c2nnn(C)c2Cc2noc(C(C)C)n2)ccc1O[C@H]1CCC[C@H](C(=O)O)C1` [Example 230, (1S,3S)-3-((6-(5-((5-isopropyl-1,2,4-oxadiazol-3-yl)methyl)-1-methyl-1H-1,2,3-triazol-4-yl)-2-methylpyridin-3-yl)oxy)cyclohexane-1-carboxylic acid], the IC50 turned out to be 95 nM. For `Cc1nc(-c2nnn(C)c2Cc2noc(CCC3CC3)n2)ccc1O[C@H]1CCC[C@H](C(=O)O)C1` [Example 231, (1S,3S)-3-((6-(5-((5-(2-cyclopropylethyl)-1,2,4-oxadiazol-3-yl)methyl)-1-methyl-1H-1,2,3-triazol-4-yl)-2-methylpyridin-3-yl)oxy)cyclohexane-1-carboxylic acid] the value was 15 nM; for `Cc1nc(-c2nnn(C)c2Cc2noc(CCC3CCC3)n2)ccc1O[C@H]1CCC[C@H](C(=O)O)C1` [Example 232, (1S,3S)-3-((6-(5-((5-(2-cyclobutylethyl)-1,2,4-oxadiazol-3-yl)methyl)-1-methyl-1H-1,2,3-triazol-4-yl)-2-methylpyridin-3-yl)oxy)cyclohexane-1-carboxylic acid], 8 nM; for `CCCCc1nc(Cc2c(-c3ccc(O[C@H]4CCC[C@H](C(=O)O)C4)c(C)n3)nnn2C)no1` [Example 233, (1S,3S)-3-((6-(5-((5-butyl-1,2,4-oxadiazol-3-yl)methyl)-1-methyl-1H-1,2,3-triazol-4-yl)-2-methylpyridin-3-yl)oxy)cyclohexane-1-carboxylic acid], 8 nM. For `Cc1nc(-c2nnn(C)c2Cc2noc(CC(C)C)n2)ccc1O[C@H]1CCC[C@H](C(=O)O)C1` [Example 234, (1S,3S)-3-((6-(5-((5-isobutyl-1,2,4-oxadiazol-3-yl)methyl)-1-methyl-1H-1,2,3-triazol-4-yl)-2-methylpyridin-3-yl)oxy)cyclohexane-1-carboxylic acid] the value was 52 nM.

As for `CCCc1nc(Cc2c(-c3ccc(O[C@H]4CCC[C@H](C(=O)O)C4)c(C)n3)nnn2C)no1` [Example 235, (1S,3S)-3-((2-methyl-6-(1-methyl-5-((5-propyl-1,2,4-oxadiazol-3-yl)methyl)-1H-1,2,3-triazol-4-yl)pyridin-3-yl)oxy)cyclohexane-1-carboxylic acid], the IC50 was found to be 59 nM.

Turning to `Cc1nc(-c2nnn(C)c2Cc2noc(CC3CCC3)n2)ccc1O[C@H]1CCC[C@H](C(=O)O)C1` [Example 236, (1S,3S)-3-((6-(5-((5-(cyclobutyl-methyl)-1,2,4-oxadiazol-3-yl)methyl)-1-methyl-1H-1,2,3-triazol-4-yl)-2-methylpyridin-3-yl)oxy)cyclohexane-1-carboxylic acid], the IC50 was 28 nM. For `Cc1nc(-c2nnn(C)c2Cc2noc(Cc3ccccc3)n2)ccc1O[C@H]1CCC[C@H](C(=O)O)C1` [Example 237, (1S,3S)-3-((6-(5-((5-benzyl-1,2,4-oxadiazol-3-yl)methyl)-1-methyl-1H-1,2,3-triazol-4-yl)-2-methylpyridin-3-yl)oxy)cyclohexane-1-carboxylic acid] the value was 8 nM.

Turning to `Cc1nc(-c2nnn(C)c2Cc2noc(-c3ccccc3)n2)ccc1O[C@H]1CCC[C@H](C(=O)O)C1` [Example 238, (1S,3S)-3-((2-methyl-6-(1-methyl-5-((5-phenyl-1,2,4-oxadiazol-3-yl)methyl)-1H-1,2,3-triazol-4-yl)pyridin-3-yl)oxy)cyclohexane-1-carboxylic acid], the IC50 worked out at 161 nM. For `Cc1nc(-c2nnn(C)c2Cc2noc(CCC(F)(F)F)n2)ccc1O[C@H]1CCC[C@H](C(=O)O)C1` [Example 240] the value was 61 nM; for `Cc1nc(-c2nnn(C)c2Cc2nc(CCC(C)C)no2)ccc1O[C@H]1CCC[C@H](C(=O)O)C1` [Example 241, (1 S,3 S)-3-((6-(5-((3-isopentyl-1,2,4-oxadiazol-5-yl)methyl)-1-methyl-1H-1,2,3-triazol-4-yl)-2-methylpyridin-3-yl)oxy)cyclohexane-1-carboxylic acid], 33 nM. The value for `COc1cccc(Cc2noc(Cc3c(-c4ccc(O[C@H]5CCC[C@H](C(=O)O)C5)c(C)n4)nnn3C)n2)c1` [Example 242, (1S,3S)-3-((6-(5-((3-(3-methoxy-benzyl)-1,2,4-oxadiazol-5-yl)methyl)-1-methyl-1H-1,2,3-triazol-4-yl)-2-methylpyridin-3-yl)oxy)cyclohexane-1-carboxylic acid] was 2020 nM; that for `Cc1nc(-c2nnn(C)c2Cc2nc(CC(C)C)no2)ccc1O[C@H]1CCC[C@H](C(=O)O)C1` [Example 243, (1S,3S)-3-((6-(5-((3-isobutyl-1,2,4-oxadiazol-5-yl)methyl)-1-methyl-1H-1,2,3-triazol-4-yl)-2-methylpyridin-3-yl)oxy)cyclohexane-1-carboxylic acid] was 58 nM. For `Cc1nc(-c2nnn(C)c2Cc2nc(Cc3ccccc3)no2)ccc1O[C@H]1CCC[C@H](C(=O)O)C1` [Example 244, (1S,3S)-3-((6-(5-((3-benzyl-1,2,4-oxadiazol-5-yl)methyl)-1-methyl-1H-1,2,3-triazol-4-yl)-2-methylpyridin-3-yl)oxy)cyclohexane-1-carboxylic acid] the value was 40 nM; for `Cc1nc(-c2nnn(C)c2Cc2nc(-c3ccccc3)no2)ccc1O[C@H]1CCC[C@H](C(=O)O)C1` [Example 245, (1S,3S)-3-((2-methyl-6-(1-methyl-5-((3-phenyl-1,2,4-oxadiazol-5-yl)methyl)-1H-1,2,3-triazol-4-yl)pyridin-3-yl)oxy)cyclohexane-1-carboxylic acid], 79 nM. In the case of `Cc1nc(-c2nnn(C)c2Cc2nc(CC3CC3)no2)ccc1O[C@H]1CCC[C@H](C(=O)O)C1` [Example 246, (1S,3S)-3-((6-(5-((3-(cyclopropyl-methyl)-1,2,4-oxadiazol-5-yl)methyl)-1-methyl-1H-1,2,3-triazol-4-yl)-2-methylpyridin-3-yl)oxy)cyclohexane-1-carboxylic acid], the IC50 was determined as 40 nM. For `CCCc1noc(Cc2c(-c3ccc(O[C@H]4CCC[C@H](C(=O)O)C4)c(C)n3)nnn2C)n1` [Example 247, (1S,3S)-3-((2-methyl-6-(1-methyl-5-((3-propyl-1,2,4-oxadiazol-5-yl)methyl)-1H-1,2,3-triazol-4-yl)pyridin-3-yl)oxy)cyclohexane-1-carboxylic acid] the value was 82 nM; for `Cc1nc(-c2nnn(C)c2Cc2nc(COC(C)C)no2)ccc1O[C@H]1CCC[C@H](C(=O)O)C1` [Example 248, (1S,3S)-3-((6-(5-((3-(isopropoxy-methyl)-1,2,4-oxadiazol-5-yl)methyl)-1-methyl-1H-1,2,3-triazol-4-yl)-2-methylpyridin-3-yl)oxy)cyclohexane-1-carboxylic acid], 61 nM. With `CCOCc1noc(Cc2c(-c3ccc(O[C@H]4CCC[C@H](C(=O)O)C4)c(C)n3)nnn2C)n1` [Example 249, (1S,3S)-3-((6-(5-((3-(ethoxymethyl)-1,2,4-oxadiazol-5-yl)methyl)-1-methyl-1H-1,2,3-triazol-4-yl)-2-methylpyridin-3-yl)oxy)cyclohexane-1-carboxylic acid], the IC50 turned out to be 76 nM. The value for `Cn1nnc(-c2ccc(O[C@H]3CCC[C@H](C(=O)O)C3)cn2)c1Cn1nnc(CC2CC2)n1` [Example 250, (1 S,3 S)-3-((6-(5-((5-(cyclopropylmethyl)-2H-tetrazol-2-yl)methyl)-1-methyl-1H-1,2,3-triazol-4-yl)pyridin-3-yl)oxy)cyclohexane-1-carboxylic acid] was 44 nM; that for `Cn1nnc(-c2ccc(O[C@H]3CCC[C@H](C(=O)O)C3)cn2)c1Cn1nnnc1CC1CC1` [Example 251, (1S,3S)-3-((6-(5-((5-(cyclopropylmethyl)-1H-tetrazol-1-yl)methyl)-1-methyl-1H-1,2,3-triazol-4-yl)pyridin-3-yl)oxy)cyclohexane-1-carboxylic acid] was 125 nM. For `CCCc1nnn(Cc2c(-c3ccc(O[C@H]4CCC[C@H](C(=O)O)C4)cn3)nnn2C)n1` [Example 252, (1S,3S)-3-((6-(1-methyl-5-((5-propyl-2H-tetrazol-2-yl)methyl)-1H-1,2,3-triazol-4-yl)pyridin-3-yl)oxy)cyclohexane-1-carboxylic acid] the value was 531 nM; for `CCCc1nnnn1Cc1c(-c2ccc(O[C@H]3CCC[C@H](C(=O)O)C3)cn2)nnn1C` [Example 253, (1S,3S)-3-((6-(1-methyl-5-((5-propyl-1H-tetrazol-1-yl)methyl)-1H-1,2,3-triazol-4-yl)pyridin-3-yl)oxy)cyclohexane-1-carboxylic acid], 264 nM; for `CC(C)Cc1nnn(Cc2c(-c3ccc(O[C@H]4CCC[C@H](C(=O)O)C4)cn3)nnn2C)n1` [Example 254, (1S,3S)-3-((6-(5-((5-isobutyl-2H-tetrazol-2-yl)methyl)-1-methyl-1H-1,2,3-triazol-4-yl)pyridin-3-yl)oxy)cyclohexane-1-carboxylic acid], 288 nM. For `CC(C)Cc1nnnn1Cc1c(-c2ccc(O[C@H]3CCC[C@H](C(=O)O)C3)cn2)nnn1C` [Example 255, (1S,3S)-3-((6-(5-((5-isobutyl-1H-tetrazol-1-yl)methyl)-1-methyl-1H-1,2,3-triazol-4-yl)pyridin-3-yl)oxy)cyclohexane-1-carboxylic acid] the value was 237 nM.
